From US20260138976A1 (Hoffmann-La Roche Inc., priority 2022, published 2026)

Key:
[1] = target: T1, DGKα (hDGKalpha(1-735)-N-His) (Homo sapiens, UniProt P23743); assay: In vitro DGK inhibition assay, DGKalpha ADP Glo (in house); format: biochemical; settings: 4 nM DGKα, 25 μM ATP, 125 uM DLG in liposomes, 1 hour reaction
T1 construct: hDGKalpha(1-735)-N-His; His (N); made in house; host or cells: Sf21 insect cells (baculovirus)
Outline: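 Full-length His-tagged human DGKα (4 nM) or DGKζ (2 nM), expressed in Sf21 cells, phosphorylated 125 µM DLG in PS/PC liposomes with ATP at 25 µM (α) or 50 µM (ζ) for 1 h. ADP was measured by ADP-Glo luminescence. Compounds were tested as 11-point 1:3 series in 2% DMSO.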

[2] = tested on: primary human T-cells; assay: Proliferation assay (5 days, CellTiter-Glo, CD3-stimulated T-cells); format: cell-based; settings: for Emax proliferation (% activation): CD3 condition, normalised to DMSO (neutral) and 20 μM reference compound A1 = 100%; for EC50: Homo sapiens, T-cell, 120 h, CD3-stimulated primary human T-cells, 5 days, CellTiter-Glo, fitted sigmoidal curve, read-out: Tcell Proliferation CD3 EC50
Outline: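 Expanded primary human T-cells, 100 k cells/well, were stimulated with plate-coated CD3 antibody (donor-titrated) and given compound in a 5 or 6 pt dose response from 20 μM or 10 μM final top, 0.2% DMSO final. ATP was read by CellTiter-Glo after 5 days. EC50 and Emax were reported as % of 20 μM reference compound A1.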

T1 sequence (P23743 whole entry): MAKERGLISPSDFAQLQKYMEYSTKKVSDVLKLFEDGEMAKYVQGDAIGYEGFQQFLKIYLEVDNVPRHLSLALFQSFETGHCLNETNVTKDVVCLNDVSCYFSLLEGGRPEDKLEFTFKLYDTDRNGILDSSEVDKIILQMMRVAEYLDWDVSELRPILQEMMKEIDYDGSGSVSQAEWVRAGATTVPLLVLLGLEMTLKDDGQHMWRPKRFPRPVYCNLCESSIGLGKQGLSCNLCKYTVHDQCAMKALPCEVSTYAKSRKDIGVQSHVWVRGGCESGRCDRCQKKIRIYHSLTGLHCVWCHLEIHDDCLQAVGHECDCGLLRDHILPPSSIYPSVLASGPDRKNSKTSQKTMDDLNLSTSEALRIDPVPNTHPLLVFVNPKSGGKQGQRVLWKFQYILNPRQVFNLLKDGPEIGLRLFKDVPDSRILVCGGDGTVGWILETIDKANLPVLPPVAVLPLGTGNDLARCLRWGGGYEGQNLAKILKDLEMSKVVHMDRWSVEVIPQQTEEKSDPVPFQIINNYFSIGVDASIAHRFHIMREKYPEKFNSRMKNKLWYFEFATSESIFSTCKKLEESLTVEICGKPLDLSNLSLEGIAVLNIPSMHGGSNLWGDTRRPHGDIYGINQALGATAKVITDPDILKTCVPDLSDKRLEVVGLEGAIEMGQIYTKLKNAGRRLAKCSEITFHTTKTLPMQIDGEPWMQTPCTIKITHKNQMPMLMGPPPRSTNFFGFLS

Row | IC50 [1] | SMILES | Emax proliferation (% activation) [2] | EC50 [2]
1 | > 62500 nM | CC(C)(c1nnc(-c2ccc3c(c2)N(Cc2ccc(-c4noc(C5CC5)n4)cc2)C(=O)[C@@H](N)CS3(=O)=O)o1)C(F)(F)F [Example 167, (3R)-3-amino-5-[[4-(5-cyclopropyl-1,2,4-oxadiazol-3-yl)phenyl]methyl]-1,1-dioxo-7-[5-(2,2,2-trifluoro-1,1-dimethyl-ethyl)-1,3,4-oxadiazol-2-yl]-2,3-dihydro-1λ^6,5-benzothiazepin-4-one] | 186 % activation | 629 nM
2 | > 19800 nM | CCC(O)(c1nnc(-c2ccc3c(c2)N(Cc2ccc(-c4noc(C5CC5)n4)cc2)C(=O)[C@@H](N)CS3(=O)=O)o1)C(F)(F)F (stereo partly drawn) [Example 169] | 106 % activation | 833 nM
3 | > 62500 nM | CCN1CC(c2nnc(-c3ccc4c(c3)N(Cc3ccc(-c5noc(C(C)(C)C)n5)cc3)C(=O)[C@@H](N)CS4(=O)=O)o2)CC(F)(F)C1 (stereo partly drawn) [Example 181, (3R)-3-amino-5-[[4-(5-tert-butyl-1,2,4-oxadiazol-3-yl)phenyl]methyl]-7-[5-(1-ethyl-5,5-difluoro-3-piperidyl)-1,3,4-oxadiazol-2-yl]-1,1-dioxo-2,3-dihydro-1λ^6,5-benzothiazepin-4-one] | 105 % activation | 718 nM
4 | > 62500 nM | COCCN1CC(c2nnc(-c3ccc4c(c3)N(Cc3ccc(-c5noc(C(F)(F)F)n5)cc3)C(=O)[C@@H](N)CS4(=O)=O)o2)CC(F)(F)C1 (stereo partly drawn) [Example 182, (3R)-3-amino-7-[5-[5,5-difluoro-1-(2-methoxyethyl)-3-piperidyl]-1,3,4-oxadiazol-2-yl]-1,1-dioxo-5-[[4-[5-(trifluoromethyl)-1,2,4-oxadiazol-3-yl]phenyl]methyl]-2,3-dihydro-1λ^6,5-benzothiazepin-4-one] | 175 % activation | 1270 nM
5 | > 62500 nM | COCCN1CC(c2nnc(-c3ccc4c(c3)N(Cc3ccc(-c5ccc(OC)cc5)cc3)C(=O)[C@@H](N)CS4(=O)=O)o2)CC(F)(F)C1 (stereo partly drawn) [Example 183, (3R)-3-amino-7-[5-[5,5-difluoro-1-(2-methoxyethyl)-3-piperidyl]-1,3,4-oxadiazol-2-yl]-5-[[4-(4-methoxyphenyl)phenyl]methyl]-1,1-dioxo-2,3-dihydro-1λ^6,5-benzothiazepin-4-one] | 156 % activation | 1680 nM

Second part, the compound before the results:

Row | SMILES | IC50 [1] | Emax proliferation (% activation) [2] | EC50 [2]
6 | CC(C)(C#N)c1nnc(-c2ccc3c(c2)N(Cc2ccc(-n4ccc(C(F)(F)F)n4)cc2)C(=O)[C@@H](N)CS3(=O)=O)o1 [Example 121, 2-[5-[(3R)-3-amino-1,1,4-trioxo-5-[[4-[3-(trifluoromethyl)pyrazol-1-yl]phenyl]methyl]-2,3-dihydro-1λ^6,5-benzothiazepin-7-yl]-1,3,4-oxadiazol-2-yl]-2-methyl-propanenitrile] | > 6250 nM | 160 % activation | 1090 nM
7 | CC(C)(C#N)c1nnc(-c2ccc3c(c2)N(Cc2ccc(-c4ccc(OC(F)(F)F)cn4)cc2)C(=O)[C@@H](N)CS3(=O)=O)o1 [Example 124] | 2400 nM | 153 % activation | 114 nM
8 | CC1(c2nnc(-c3ccc4c(c3)N(Cc3ccc(-c5noc(C(F)(F)F)n5)cc3)C(=O)[C@@H](N)CS4(=O)=O)o2)COC1 [Example 149, (3R)-3-amino-7-[5-(3-methyloxetan-3-yl)-1,3,4-oxadiazol-2-yl]-1,1-dioxo-5-[[4-[5-(trifluoromethyl)-1,2,4-oxadiazol-3-yl]phenyl]methyl]-2,3-dihydro-1λ^6,5-benzothiazepin-4-one] | > 62500 nM | 118 % activation | 1210 nM
9 | CC1(c2nnc(-c3ccc4c(c3)N(Cc3ccc(-c5ccc(C(F)(F)F)cn5)cc3)C(=O)[C@@H](N)CS4(=O)=O)o2)COC1 [Example 150, (3R)-3-amino-7-[5-(3-methyloxetan-3-yl)-1,3,4-oxadiazol-2-yl]-1,1-dioxo-5-[[4-[5-(trifluoromethyl)-2-pyridyl]phenyl]methyl]-2,3-dihydro-1λ^6,5-benzothiazepin-4-one] | > 19800 nM | 79 % activation | 656 nM
10 | C[C@@](N)(c1nnc(-c2ccc3c(c2)N(Cc2ccc(-n4ccc(C(F)(F)F)n4)cc2)C(=O)[C@@H](N)CS3(=O)=O)o1)C(F)(F)F [Example 157, (3R)-3-amino-7-[5-[(1R)-1-amino-2,2,2-trifluoro-1-methyl-ethyl]-1,3,4-oxadiazol-2-yl]-1,1-dioxo-5-[[4-[3-(trifluoromethyl)pyrazol-1-yl]phenyl]methyl]-2,3-dihydro-1λ^6,5-benzothiazepin-4-one] | 41400 nM | 130 % activation | 600 nM
11 | COC(=O)N1CC2CC(c3nnc(-c4ccc5c(c4)N(Cc4ccc(-c6ccc(C(F)(F)F)cn6)cc4)C(=O)[C@@H](N)CS5(=O)=O)o3)(C2)C1 [Example 159, methyl 1-[5-[(3R)-3-amino-1,1,4-trioxo-5-[[4-[5-(trifluoromethyl)-2-pyridyl]phenyl]methyl]-2,3-dihydro-1λ^6,5-benzothiazepin-7-yl]-1,3,4-oxadiazol-2-yl]-3-azabicyclo[3.1.1]heptane-3-carboxylate] | 1950 nM | 146 % activation | 152 nM
12 | N[C@H]1CS(=O)(=O)c2ccc(-c3nnc(N4CCC(F)(F)CC4)o3)cc2N(Cc2ccc(-c3nc(C(F)(F)F)no3)cc2)C1=O [Example 161, (3R)-3-amino-7-[5-(4,4-difluoro-1-piperidyl)-1,3,4-oxadiazol-2-yl]-1,1-dioxo-5-[[4-[3-(trifluoromethyl)-1,2,4-oxadiazol-5-yl]phenyl]methyl]-2,3-dihydro-1λ^6,5-benzothiazepin-4-one] | > 62500 nM | 178 % activation | 327 nM
13 | N#CC1CN(c2nnc(-c3ccc4c(c3)N(Cc3ccc(-c5noc(C(F)(F)F)n5)cc3)C(=O)[C@@H](N)CS4(=O)=O)o2)CCO1 (stereo partly drawn) [Example 163, 4-[5-[(3R)-3-amino-1,1,4-trioxo-5-[[4-[5-(trifluoromethyl)-1,2,4-oxadiazol-3-yl]phenyl]methyl]-2,3-dihydro-1λ^6,5-benzothiazepin-7-yl]-1,3,4-oxadiazol-2-yl]morpholine-2-carbonitrile] | > 62500 nM | 106 % activation | 6440 nM
14 | COCC1CN(c2nnc(-c3ccc4c(c3)N(Cc3ccc(-c5noc(C(F)(F)F)n5)cc3)C(=O)[C@@H](N)CS4(=O)=O)o2)CCO1 (stereo partly drawn) [Example 164, (3R)-3-amino-7-[5-[2-(methoxymethyl)morpholin-4-yl]-1,3,4-oxadiazol-2-yl]-1,1-dioxo-5-[[4-[5-(trifluoromethyl)-1,2,4-oxadiazol-3-yl]phenyl]methyl]-2,3-dihydro-1λ^6,5-benzothiazepin-4-one] | > 62500 nM | 86 % activation | 390 nM
15 | CC(C)(c1nnc(-c2ccc3c(c2)N(Cc2ccc(-c4noc(C(F)(F)F)n4)cc2)C(=O)[C@@H](N)CS3(=O)=O)o1)C(F)(F)F [Example 166] | 3030 nM | 164 % activation | 75.9 nM
